The values below are quoted from earlier work in patent publication US9955683B2, “Insecticidal apparatus and methods” (priority 2012, dated 2018).

One data set concerns blowfly larvae. To be noted: sheep.
The conditions of data set [1]: ruminants; excretion mainly via the feces.

Consider `N#Cc1c(N)nc(NC2CC2)nc1N` [Dicyclanil], for which the “duration of protection, blowfly control” value in the data set with blowfly larvae (pour-on formulation) is “up to 20 wk”.

Consider `O=C(NC(=O)c1c(F)cccc1F)Nc1ccc(Cl)cc1` [Diflubenzuron], for which the “duration of protection against blowfly strike” value in the data set on blowfly larvae (emulsifiable concentrate used as a dip or shower, preventive use) was 12-14 wk. For the compound `Nc1nc(N)nc(NC2CC2)n1` [cyromazine], the “duration for which control of blowfly larvae can be maintained” value with blowfly larvae (after a single pour-on application) is “up to 13 wk”. In the case of Ivermectin, the “fraction of unaltered molecule excreted in the urine” value in data set [1] is recorded as below 2%.
